CC(=O)S[C@@H]1CC2=CC(=O)CC[C@]2(C)[C@H]2CC[C@@]3(C)[C@@H](CC[C@@]34CCC(=O)O4)[C@H]12
Settings	solubility (mole fraction)
in ethanol, 278.75 K	0.0017
in ethanol, 283.55 K	0.00197
in ethanol, 288.45 K	0.00238
in ethanol, 293.45 K	0.0031
in ethanol, 298.35 K	0.00394
in ethanol, 303.15 K	0.00491
in ethanol, 308.25 K	0.00606
in ethanol, 313.15 K	0.00771
in ethanol, 317.95 K	0.00975
in ethyl acetate, 278.85 K	0.0179
in ethyl acetate, 283.65 K	0.0198
in ethyl acetate, 288.55 K	0.0226
in ethyl acetate, 293.45 K	0.0246
in ethyl acetate, 298.3 K	0.0281
in ethyl acetate, 303.15 K	0.0314
in ethyl acetate, 308.1 K	0.0359
in ethyl acetate, 312.95 K	0.0412
in ethyl acetate, 317.75 K	0.0456
in isopropanol, 278.45 K	0.000994
in isopropanol, 283.55 K	0.00128
in isopropanol, 288.4 K	0.00168
in isopropanol, 293.25 K	0.00208
in isopropanol, 298.2 K	0.00265
in isopropanol, 303.05 K	0.00343
in isopropanol, 307.95 K	0.00445
in isopropanol, 312.9 K	0.00572
in isopropanol, 317.55 K	0.00731
in methanol, 278.85 K	0.000202
in methanol, 283.65 K	0.000267
in methanol, 288.55 K	0.000356
in methanol, 293.45 K	0.00041
in methanol, 298.3 K	0.000612
in methanol, 303.15 K	0.000813
in methanol, 308.1 K	0.00104
in methanol, 312.95 K	0.00139
in methanol, 317.75 K	0.00182
in n-butanol, 278.95 K	0.00194
in n-butanol, 283.65 K	0.00237
in n-butanol, 288.55 K	0.00309
in n-butanol, 293.45 K	0.00396
in n-butanol, 298.25 K	0.00469
in n-butanol, 303.05 K	0.00581
in n-butanol, 308.15 K	0.00732
in n-butanol, 312.95 K	0.00898
in n-butanol, 317.65 K	0.011
in n-propanol, 278.4 K	0.00228
in n-propanol, 283.65 K	0.0026
in n-propanol, 288.35 K	0.00326
in n-propanol, 293.25 K	0.00395
in n-propanol, 298.15 K	0.00488
in n-propanol, 303.05 K	0.00606
in n-propanol, 307.95 K	0.00756
in n-propanol, 312.9 K	0.00957
in n-propanol, 318.35 K	0.0121

Reference: BigSolDB 2.1
